Measurements from patent publication US11345666B2, “Phenyl and pyridinyl substituted imidazoles as modulators of RORγT” (Janssen Pharmaceutica NV, priority 2018, dated 2022).
Read-outs that look alike come from different tables or passages of the source. Marks after values point to notes of the source that are not given here.

Molecular target: full-length human RORγt (Homo sapiens (Human), UniProt P51449)
Test: RORγt (full-length human) reporter assay, conditions A or B
Format: cell-based
Settings: for IC50: HEK293T cells, read-out: RORγt (FL) Reporter Assay A or B, IC50; for inhibition at 2 µM: 2 μM compound concentration (**); for inhibition at 6 µM: read-out: RORγt (FL) Reporter Assay A or B, % inhibition @ 6 μM, 6 μM compound concentration
In short: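 HEK293T cells transiently co-transfected (PEI) with GAL4-DBD–RORγt, GAL4-firefly luciferase and CMV-Renilla reporters; condition A 35,000 cells/well, 170.5 ng DNA/well; condition B 8750 cells/well, 42.6 ng DNA/well.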

[1] = 0.67 μM compound concentration (****), read-out: RORγt (FL) Reporter Assay A or B, % inhibition
[2] = 0.22 μM compound concentration (******), read-out: RORγt (FL) Reporter Assay A or B, % inhibition
[3] = read-out: RORγt (FL) Reporter Assay A or B, % inhibition

full-length human RORγt, sequence (P51449 other isoform, or with tags, fused parts or gaps): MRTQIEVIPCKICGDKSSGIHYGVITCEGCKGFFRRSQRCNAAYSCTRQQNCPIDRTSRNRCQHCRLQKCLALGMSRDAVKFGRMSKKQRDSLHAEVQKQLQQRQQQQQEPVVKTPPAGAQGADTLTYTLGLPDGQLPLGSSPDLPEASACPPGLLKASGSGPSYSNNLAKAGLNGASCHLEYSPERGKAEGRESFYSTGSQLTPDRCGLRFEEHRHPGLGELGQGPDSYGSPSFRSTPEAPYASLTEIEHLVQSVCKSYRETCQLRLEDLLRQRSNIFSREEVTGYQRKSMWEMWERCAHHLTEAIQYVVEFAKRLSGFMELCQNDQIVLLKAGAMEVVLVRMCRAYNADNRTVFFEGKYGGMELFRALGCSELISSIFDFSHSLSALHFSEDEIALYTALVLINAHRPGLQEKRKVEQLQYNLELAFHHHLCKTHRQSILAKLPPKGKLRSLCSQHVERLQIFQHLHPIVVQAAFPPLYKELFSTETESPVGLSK

Row | SMILES | IC50 [nM] | also measured
1 | CCc1nc(C(=O)NC[C@H]2CC[C@H](S(C)(=O)=O)CC2)c(C)n1-c1ccc(CC(C)C(F)(F)F)cc1OC (single isomer, unassigned) [Example 7] | 12 | inhibition at 0.22 µM (read-out: RORγt (FL) Reporter Assay A or B, % inhibition, 0.22 μM compound concentration (******)): 91%
2 | CCc1nc(C(=O)NC[C@]2(O)CC[C@@H](S(C)(=O)=O)CC2)c(C)n1-c1ccc(CC(C(F)(F)F)C(F)(F)F)cc1F [Example 109, 2-Ethyl-1-(2-fluoro-4-(3,3,3-trifluoro-2-(trifluoromethyl)propyl)phenyl)-N-(((1s,4s)-1-hydroxy-4-(methylsulfonyl)cyclohexyl)methyl)-5-methyl-1H-imidazole-4-carboxamide] | 22 | inhibition at 0.67 µM [1]: 97%
3 | CCc1nc(C(=O)NC[C@H]2CC[C@H](S(C)(=O)=O)CC2)c(Cl)n1-c1ccc(CCC(F)(F)F)cc1F [Example 22, 5-Chloro-2-ethyl-1-(2-fluoro-4-(3,3,3-trifluoropropyl)phenyl)-N-(((1r,4r)-4-(methylsulfonyl)cyclohexyl)methyl)-1H-imidazole-4-carboxamide] | 15 | inhibition at 0.22 µM [2]: 38%
4 | [2H]C([2H])([2H])Oc1cc(CC(C)(C)C(F)(F)F)ccc1-n1c(CC)nc(C(=O)NC[C@H]2CC[C@H](S(C)(=O)=O)CC2)c1C#N [Example 27, 5-Cyano-2-ethyl-1-(2-(methoxy-d3)-4-(3,3,3-trifluoro-2,2-dimethylpropyl)phenyl)-N-(((1r,4r)-4-(methylsulfonyl)cyclohexyl)methyl)-1H-imidazole-4-carboxamide] | 18 | inhibition at 0.67 µM [1]: 97%
5 | CCc1nc(C(=O)NC[C@]2(O)CC[C@@H](S(C)(=O)=O)CC2)c(Cl)n1-c1ccc(CC(C(F)(F)F)C(F)(F)F)cc1F [Example 100, 5-Chloro-2-ethyl-1-(2-fluoro-4-(3,3,3-trifluoro-2-(trifluoromethyl)propyl)phenyl)-N-(((1s,4s)-1-hydroxy-4-(methylsulfonyl)cyclohexyl)methyl)-1H-imidazole-4-carboxamide] | 6.7 | inhibition at 0.22 µM [2]: 100%
6 | CCc1nc(C(=O)NC[C@]2(O)CC[C@@H](S(C)(=O)=O)CC2)c(Cl)n1-c1c(F)cc(CC(C)C)cc1F [Example 83, 5-Chloro-1-(2,6-difluoro-4-isobutylphenyl)-2-ethyl-N-(((1s,4s)-1-hydroxy-4-(methylsulfonyl)cyclohexyl)methyl)-1H-imidazole-4-carboxamide] | 120 | inhibition at 2 µM [3]: 23%
7 | CCc1nc(C(=O)NC[C@H]2CC[C@H](S(C)(=O)=O)CC2)c(C#N)n1-c1ccc(CC(C)(C)C(F)(F)F)cc1OC(F)F [Example 36, 5-Cyano-1-(2-(difluoromethoxy)-4-(3,3,3-trifluoro-2,2-dimethylpropyl)phenyl)-2-ethyl-N-(((1r,4r)-4-(methylsulfonyl)cyclohexyl)methyl)-1H-imidazole-4-carboxamide] | 13 | inhibition at 2 µM [3]: 101%
8 | CCc1nc(C(=O)NC[C@]2(O)CC[C@@H](S(C)(=O)=O)CC2)c(C#N)n1-c1ccc(CC(C)(C)C(F)(F)F)cc1OC(F)(F)F [Example 111, 5-Cyano-2-ethyl-N-(((1s,4s)-1-hydroxy-4-(methylsulfonyl)cyclohexyl)methyl)-1-(4-(3,3,3-trifluoro-2,2-dimethylpropyl)-2-(trifluoromethoxy)phenyl)-1H-imidazole-4-carboxamide] | 86 | inhibition at 6 µM: 99%
9 | CCc1nc(C(=O)NC[C@H]2CC[C@H](S(C)(=O)=O)CC2)c(Cl)n1-c1ncc(CC(C)(C)C(F)(F)F)cc1OC(F)F [Example 2, 5-Chloro-1-(3-(difluoromethoxy)-5-(3,3,3-trifluoro-2,2-dimethylpropyl)pyridin-2-yl)-2-ethyl-N-((4-(methylsulfonyl)cyclohexyl)methyl)-1H-imidazole-4-carboxamide] | 12 | inhibition at 1 µM (1 μM compound concentration (***), read-out: RORγt (FL) Reporter Assay A or B, % inhibition): 84%
10 | CCc1nc(C(=O)NC[C@H]2CC[C@H](S(C)(=O)=O)CC2)c(Cl)n1-c1ccc(N[C@H](C)C(F)(F)F)cc1OC [Example 3, 5-Chloro-2-ethyl-1-(2-methoxy-4-(((R)-1,1,1-trifluoropropan-2-yl)amino)phenyl)-N-(((1r,4R)-4-(methylsulfonyl)cyclohexyl)methyl)-1H-imidazole-4-carboxamide] | 36 | inhibition at 2 µM [3]: 101%
11 | CCc1nc(C(=O)NC[C@H]2CC[C@H](S(C)(=O)=O)CC2)c(Cl)n1-c1ccc(CC(C)C(F)(F)F)cc1OC (single isomer, unassigned) [Example 6, 5-Chloro-2-ethyl-1-((1S*)-2-methoxy-4-(3,3,3-trifluoro-2-methylpropyl)phenyl)-N-(((1r,4S)-4-(methylsulfonyl)cyclohexyl)methyl)-1H-imidazole-4-carboxamide] | 6 | RORγt (FL) Reporter Assay A or B, % inhibition (0.67 μM compound concentration (****)): 99**** %
12 | CCc1nc(C(=O)NC[C@H]2CC[C@H](S(C)(=O)=O)CC2)c(F)n1-c1ccc(N[C@H](C)C(F)(F)F)cc1OC [Example 12, 2-Ethyl-5-fluoro-1-(2-methoxy-4-(((R)-1,1,1-trifluoropropan-2-yl)amino)phenyl)-N-(((1r,4R)-4-(methylsulfonyl)cyclohexyl)methyl)-1H-imidazole-4-carboxamide] | 160 | inhibition at 6 µM: 109%
